# Reference: patent US20250270200A1, “CTPS1 INHIBITORS AND USES THEREOF” (Nimbus Clotho, Inc., priority 2022, published 2025)
# Target: T1, human CTPS1 (Homo sapiens, UniProt P17812)
# T1 sequence (P17812 1-591): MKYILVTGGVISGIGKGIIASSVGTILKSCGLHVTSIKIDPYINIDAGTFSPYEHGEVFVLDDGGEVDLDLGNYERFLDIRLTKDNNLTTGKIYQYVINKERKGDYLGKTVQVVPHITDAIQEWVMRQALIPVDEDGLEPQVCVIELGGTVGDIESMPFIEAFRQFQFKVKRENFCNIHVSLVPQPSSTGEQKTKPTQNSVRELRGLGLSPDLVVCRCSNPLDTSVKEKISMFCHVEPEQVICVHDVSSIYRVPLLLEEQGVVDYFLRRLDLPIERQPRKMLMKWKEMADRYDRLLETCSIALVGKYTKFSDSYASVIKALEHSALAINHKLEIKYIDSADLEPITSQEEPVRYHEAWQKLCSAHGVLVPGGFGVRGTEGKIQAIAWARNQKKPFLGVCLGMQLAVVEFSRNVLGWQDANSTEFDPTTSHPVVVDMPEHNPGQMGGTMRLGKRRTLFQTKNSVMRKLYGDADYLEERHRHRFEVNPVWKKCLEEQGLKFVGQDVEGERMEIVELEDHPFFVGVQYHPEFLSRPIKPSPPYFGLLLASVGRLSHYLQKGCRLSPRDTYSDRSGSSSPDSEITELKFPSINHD
# Test: ADP-Glo assay, human CTPS1 enzyme inhibition
# Type: biochemical
# Conditions: wild-type human CTPS1 25 nM; ATP 120 μM, UTP 160 μM, GTP 60 μM, L-glutamine 100 μM; 25 degrees C.; read-out: ADP-Glo_WT_hCTPS1—25 nM_IC50 (IC50)
# Protocol: The enzyme inhibitory activities of the compounds of the invention against the target of interest were determined using the ADP-Glo™ assay (Promega). Assays for human CTPS1 and CTPS2 were performed in 1× assay buffer containing 50 mM HEPES (Life Technologies), 10 mM Mg2+, 5 mM KCl, 2 mM DTT, 0.01% F-127, pH to 7.4 accordingly. All reagents are from Sigma-Aldrich, unless specified otherwise. Purified human full length active N-terminal FLAG-8×HIS-TEV tagged CTPS1 (UniprotKB—P17812, […]-CTPS1[1-591]) was generated using a mammalian expression system at Viva Biotech (Shanghai) Ltd.
# Purified human CTPS1 protein was prepared in 1× assay buffer to the final working protein concentration required for the reaction. A 2.5 μL volume per well of human CTPS 1 protein was mixed with 0.1 μL per well of test compound dissolved in DMSO and pre-incubated at 25 degrees C. for 10 minutes. 2.5 μL per well of the reaction precursors ATP (UltraPure ATP from ADP-Glo™ kit) and UTP were then added and pre-incubated for an additional 10 minutes at 25 degrees C. Finally, the reaction was initiated by the addition of 5 μL of the reaction precursors L-glutamine and GTP. The final concentration of all reaction components in the assay: ATP (120 μM), UTP (160 μM), GTP (60 μM), L-Glutamine (100 μM), DMSO (1%), hCTPS1 (25 nM). This mixture was incubated for an appropriate amount of time within the determined linear phase of the reaction at 25 degrees C. under sealed plate conditions with constant agitation at 500 revolutions per minute (rpm). ADP-Glo™ reagent was added for 60 minutes (10 μL per well) and subsequently ADP-Glo™ development reagent was added for 60 minutes (20 μL per well) prior to signal detection in a microplate reader (Envision Multilabel Reader, Perkin Elmer). Following each reagent addition over the course of the assay, assay plates were pulse centrifuged for 1 minute at 1000 rpm.
# The enzyme converts ATP to ADP and the ADP-Glo™ reagent subsequently depletes any remaining ATP in the reaction system. The ADP-Glo™ detection reagents converts the ADP that has been produced by the enzyme back into ATP, which is then utilized as a substrate together with luciferin for the enzyme luciferase. Light generated by this chemiluminescent reaction is quantified and is directly proportional to the amount of ADP produced by the CTPS1 enzyme reaction. […]
row,IC50,Structure (SMILES)
1,5 to 25 nM,"COC[C@@H](NC(=O)c1ncc(-c2cnn3ccc(Cl)cc23)s1)c1nccc(NS(=O)(=O)C2CC2)c1F (single isomer, unassigned) [II-2]"
2,5 to 25 nM,"O=C(N[C@@H](c1cc(NS(=O)(=O)C2CC2)ccn1)C1CCOCC1)c1nnc(-c2cnn3ccc(Cl)cc23)s1 (single isomer, unassigned) [II-16]"
3,5 to 25 nM,"COC[C@H](NC(=O)c1ncc(-c2cnn3ccc(Cl)cc23)s1)c1nccc(NS(=O)(=O)C2CC2)c1F (single isomer, unassigned) [II-1]"

# Same assay, conditions: wild-type human CTPS1, 25 nM enzyme; ADP-Glo; read-out: ADP-Glo_WT_hCTPS1—25 nM_IC50 (IC50)
row,IC50,Structure (SMILES)
1,25 to 50 nM,"CCOc1cncc(-c2cnc(C(=O)N[C@H](CN3CCCC3)c3cccc(NS(=O)(=O)C(F)F)c3)s2)n1 (single isomer, unassigned) [I-39]"
2,50 to 100 nM,"CCOc1cncc(-c2cnc(C(=O)N[C@@H](CCN3CCC(F)CC3)c3cc(NS(=O)(=O)C4CC4)ccn3)s2)n1 (single isomer, unassigned) [I-15]"
3,5 to 25 nM,"CCOc1cncc(-c2cnc(C(=O)N[C@H](c3cccc(NS(=O)(=O)C(F)F)c3)C3CCOCC3)s2)n1 [I-194, (S)-N-((3-((difluoromethyl)sulfonamido)phenyl)(tetrahydro-2H-pyran-4-yl)methyl)-5-(6-ethoxypyrazin-2-yl)thiazole-2-]"
4,50 to 100 nM,"CCOc1cncc(-c2cnc(C(=O)N[C@@H](CN3CC[C@@](C)(O)C3)c3cc(NS(=O)(=O)C4CC4)ccn3)s2)n1 [I-129, N-((S)-1-(4-(cyclopropanesulfonamido)pyridin-2-yl)-2-((R)-3-hydroxy-3-methylpyrrolidin-1-yl)ethyl)-5-(6-ethoxypyrazin-2-yl)thiazole-2-carboxamide]"
5,5 to 25 nM,"CCOc1cncc(-c2cnc(C(=O)N[C@@H](c3cc(NS(=O)(=O)C4CC4)ccn3)C(C)(C)CN(C)C)s2)n1 [I-43, (R)-N-(1-(4-(cyclopropanesulfonamido)pyridin-2-yl)-3-(dimethylamino)-2,2-dimethylpropyl)-5-(6-ethoxypyrazin-2-yl)thiazole-2-carboxamide]"
6,5 to 25 nM,"CCOc1cncc(-c2cnc(C(=O)N[C@@H](c3cc(NS(=O)(=O)C4CC4)ccn3)[C@@H](C)CO)s2)n1 [I-226, N-((1R,2R)-1-(4-(cyclopropanesulfonamido)pyridin-2-yl)-3-hydroxy-2-methylpropyl)-5-(6-ethoxypyrazin-2-yl)thiazole-2-carboxamide]"
7,5 to 25 nM,"CCOc1cncc(-c2cnc(C(=O)N[C@H](c3cc(NS(=O)(=O)C4CC4)ccn3)[C@H]3C[C@H]4CC[C@@H]3O4)s2)n1 [I-83, N-((S)-((1S,2R,4R)-7-oxabicyclo[2.2.1]heptan-2-yl)(4-(cyclopropanesulfonamido)pyridin-2-yl)methyl)-5-(6-ethoxypyrazin-2-yl)thiazole-2-carboxamide]"
8,5 to 25 nM,"CCOc1cncc(-c2cnc(C(=O)N[C@@H](c3cc(NS(=O)(=O)C4CC4)ccn3)[C@H](C)OC)s2)n1 [I-44, N-((1S,2S)-1-(4-(cyclopropanesulfonamido)pyridin-2-yl)-2-methoxypropyl)-5-(6-ethoxypyrazin-2-yl)thiazole-2-carboxamide]"
9,5 to 25 nM,"CCOc1cncc(-c2cnc(C(=O)N[C@@H](c3cccc(NS(=O)(=O)C(F)F)c3)[C@H](C)N3CCOCC3)s2)n1 [I-222, N-((1S,2S)-1-(3-((difluoromethyl)sulfonamido)phenyl)-2-morpholinopropyl)-5-(6-ethoxypyrazin-2-yl)thiazole-2-carboxamide]"
10,5 to 25 nM,"CCOc1cncc(-c2cnc(C(=O)NC3(c4cc(NS(=O)(=O)C5CC5)ccn4)CC3)s2)n1 [I-179, N-(1-(4-(cyclopropanesulfonamido)pyridin-2-yl)cyclopropyl)-5-(6-ethoxypyrazin-2-yl)thiazole-2-carboxamide]"
11,≤ 5 nM,"CCOc1cncc(-c2cnc(C(=O)N[C@]3(c4cc(NS(=O)(=O)C5CC5)ccn4)C[C@H](O)C3)s2)n1 [I-87, N-((1s,3s)-1-(4-(cyclopropanesulfonamido)pyridin-2-yl)-3-hydroxycyclobutyl)-5-(6-ethoxypyrazin-2-yl)thiazole-2-carboxamide]"
12,5 to 25 nM,"CCOc1cncc(-c2cnc(C(=O)N[C@H](Cn3ccnn3)c3cc(NS(=O)(=O)C4CC4)ccn3)s2)n1 [I-156, (R)-N-(1-(4-(cyclopropanesulfonamido)pyridin-2-yl)-2-(1H-1,2,3-triazol-1-yl)ethyl)-5-(6-ethoxypyrazin-2-yl)thiazole-2-carboxamide]"
13,5 to 25 nM,"CCOc1cncc(-c2cnc(C(=O)N[C@@H](c3cc(NS(=O)(=O)C4CC4)ncn3)[C@H]3CCOC3)s2)n1 [I-258, N-((R)-(6-(cyclopropanesulfonamido)pyrimidin-4-yl)((R)-tetrahydrofuran-3-yl)methyl)-5-(6-ethoxypyrazin-2-yl)thiazole-2-carboxamide]"

# More lines, now with the values behind:
row,Structure (SMILES),IC50
1,"C[C@@H](CO)[C@@H](NC(=O)c1ncc(-c2cnn3ccc(Cl)cc23)s1)c1cc(NS(=O)(=O)C2CC2)ccn1 [I-231, 5-(5-chloropyrazolo[1,5-a]pyridin-3-yl)-N-((1R,2R)-1-(4-(cyclopropanesulfonamido)pyridin-2-yl)-3-hydroxy-2-methylpropyl)thiazole-2-carboxamide]",5 to 25 nM
2,"C[C@@H](CN1CCCCC1)[C@H](NC(=O)c1ncc(-c2cnn3ccc(Cl)cc23)s1)c1cc(NS(=O)(=O)C2CC2)ccn1 [I-58, 5-(5-chloropyrazolo[1,5-a]pyridin-3-yl)-N-((1S,2S)-1-(4-(cyclopropanesulfonamido)pyridin-2-yl)-2-methyl-3-(piperidin-1-yl)propyl)thiazole-2-carboxamide]",50 to 100 nM
3,"O=C(NCc1cc(NS(=O)(=O)C2CC2)ccn1)c1ccc(-c2cnn3ccc(Cl)cc23)cc1F [I-181, 4-(5-chloropyrazolo[1,5-a]pyridin-3-yl)-N-((4-(cyclopropanesulfonamido)pyridin-2-yl)methyl)-2-fluorobenzamide]",25 to 50 nM
4,"CCOc1cncc(-c2cnc(C(=O)N[C@@H](COC)c3ccnc(NS(=O)(=O)C4CC4)n3)s2)n1 [I-281, (R)-N-(1-(2-(cyclopropanesulfonamido)pyrimidin-4-yl)-2-methoxyethyl)-5-(6-ethoxypyrazin-2-yl)thiazole-2-carboxamide]",5 to 25 nM
5,"O=C(N[C@H](c1cc(NS(=O)(=O)C2CC2)ccn1)[C@@H]1COCCO1)c1ncc(-c2cnn3ccc(Cl)cc23)s1 [I-78, 5-(5-chloropyrazolo[1,5-a]pyridin-3-yl)-N-((R)-(4-(cyclopropanesulfonamido)pyridin-2-yl)((R)-1,4-dioxan-2-yl)methyl)thiazole-2-carboxamide]",5 to 25 nM
6,"O=C(N[C@]1(c2cc(NS(=O)(=O)C3CC3)ccn2)C[C@@H](O)C1)c1ncc(-c2cnn3ccc(Cl)cc23)s1 [I-90, 5-(5-chloropyrazolo[1,5-a]pyridin-3-yl)-N-((1r,3r)-1-(4-(cyclopropanesulfonamido)pyridin-2-yl)-3-hydroxycyclobutyl)thiazole-2-carboxamide]",5 to 25 nM
7,"COCC[C@@H](NC(=O)c1ncc(-c2cnn3ccc(Cl)cc23)s1)c1cc(NS(=O)(=O)C2CC2)ccn1 (single isomer, unassigned) [I-2]",5 to 25 nM
8,"CCOc1cncc(-c2cnc(C(=O)N[C@@H](CN3CCN(C)C(=O)C3)c3cc(NS(=O)(=O)C4CC4)ccn3)s2)n1 [I-147, (S)-N-(1-(4-(cyclopropanesulfonamido)pyridin-2-yl)-2-(4-methyl-3-oxopiperazin-1-yl)ethyl)-5-(6-ethoxypyrazin-2-yl)thiazole-2-carboxamide]",5 to 25 nM
